According to patent publication US9212182B2, “Bicyclic sulfonamide compounds as sodium channel inhibitors” (AMGEN INC., priority 2013, dated 2015):

What follows are molecules tested against Nav 1.7 (Homo sapiens (Human), UniProt Q15858) (assay: in-vitro Nav 1.7 PX (IC50)). Conditions: not given.
Type: cell-based

Chain of Nav 1.7 (Q15858 whole entry): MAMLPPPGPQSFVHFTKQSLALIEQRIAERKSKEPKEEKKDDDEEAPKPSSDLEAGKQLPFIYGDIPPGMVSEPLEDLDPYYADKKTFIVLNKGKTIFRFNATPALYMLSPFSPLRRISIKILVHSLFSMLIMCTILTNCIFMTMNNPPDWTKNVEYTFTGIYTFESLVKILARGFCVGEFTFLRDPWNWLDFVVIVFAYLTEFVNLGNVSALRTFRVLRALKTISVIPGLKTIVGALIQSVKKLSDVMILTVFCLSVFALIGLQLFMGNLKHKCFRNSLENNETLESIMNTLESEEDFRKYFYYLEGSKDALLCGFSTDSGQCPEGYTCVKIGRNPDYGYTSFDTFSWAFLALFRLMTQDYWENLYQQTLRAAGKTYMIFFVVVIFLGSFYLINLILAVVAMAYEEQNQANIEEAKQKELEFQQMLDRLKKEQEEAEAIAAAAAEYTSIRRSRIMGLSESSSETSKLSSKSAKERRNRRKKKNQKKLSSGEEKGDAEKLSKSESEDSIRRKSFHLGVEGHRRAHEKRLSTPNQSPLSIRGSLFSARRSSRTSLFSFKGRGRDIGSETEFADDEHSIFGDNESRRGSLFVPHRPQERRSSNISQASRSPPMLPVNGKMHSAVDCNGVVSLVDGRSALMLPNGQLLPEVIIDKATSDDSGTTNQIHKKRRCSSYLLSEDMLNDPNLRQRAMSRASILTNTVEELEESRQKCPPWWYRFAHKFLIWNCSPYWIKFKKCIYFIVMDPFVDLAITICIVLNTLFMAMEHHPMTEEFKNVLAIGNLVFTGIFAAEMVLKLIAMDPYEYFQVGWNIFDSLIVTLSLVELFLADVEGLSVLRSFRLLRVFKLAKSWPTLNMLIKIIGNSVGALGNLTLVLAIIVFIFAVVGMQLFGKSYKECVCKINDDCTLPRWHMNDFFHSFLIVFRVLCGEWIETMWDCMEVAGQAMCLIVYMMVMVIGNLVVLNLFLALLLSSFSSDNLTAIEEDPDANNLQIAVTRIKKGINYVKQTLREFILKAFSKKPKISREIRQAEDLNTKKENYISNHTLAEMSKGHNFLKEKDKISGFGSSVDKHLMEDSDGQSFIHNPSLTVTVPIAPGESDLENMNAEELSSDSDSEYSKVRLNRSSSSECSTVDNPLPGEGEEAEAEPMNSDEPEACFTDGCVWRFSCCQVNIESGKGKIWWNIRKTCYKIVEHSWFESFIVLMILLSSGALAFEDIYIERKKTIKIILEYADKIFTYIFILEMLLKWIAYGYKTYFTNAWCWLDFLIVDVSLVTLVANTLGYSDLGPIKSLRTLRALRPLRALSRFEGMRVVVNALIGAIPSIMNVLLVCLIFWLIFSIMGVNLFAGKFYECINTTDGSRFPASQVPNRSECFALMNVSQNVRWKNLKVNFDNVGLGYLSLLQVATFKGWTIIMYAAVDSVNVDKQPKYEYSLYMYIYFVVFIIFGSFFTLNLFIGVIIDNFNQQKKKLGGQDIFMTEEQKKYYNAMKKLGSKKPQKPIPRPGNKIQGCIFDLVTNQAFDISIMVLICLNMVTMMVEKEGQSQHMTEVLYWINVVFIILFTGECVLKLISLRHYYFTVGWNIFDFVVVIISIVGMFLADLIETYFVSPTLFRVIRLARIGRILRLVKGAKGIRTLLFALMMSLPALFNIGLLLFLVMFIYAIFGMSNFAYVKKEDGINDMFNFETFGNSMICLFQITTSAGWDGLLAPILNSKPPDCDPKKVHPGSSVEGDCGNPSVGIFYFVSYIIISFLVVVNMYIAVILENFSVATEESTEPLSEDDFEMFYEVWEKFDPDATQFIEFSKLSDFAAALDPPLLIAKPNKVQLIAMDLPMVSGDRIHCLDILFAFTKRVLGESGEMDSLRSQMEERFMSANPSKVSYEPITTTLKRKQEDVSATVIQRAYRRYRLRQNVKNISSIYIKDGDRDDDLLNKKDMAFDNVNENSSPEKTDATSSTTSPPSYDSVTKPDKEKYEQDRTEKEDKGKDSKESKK

IC50 [nM] | Compound
62 | COc1cc(-c2ccc(F)c(F)c2)c(F)cc1-n1c(=O)cnc2cc(S(=O)(=O)Nc3ccon3)ccc21 [Example 1179, N-3-isoxazolyl-2-oxo-1-(2,3′,4′-trifluoro-5-methoxy-4-biphenylyl)-1,2-dihydro-6-quinoxalinesulfonamide]
15 | COc1ccc(-c2cccc(C(F)(F)F)c2)cc1-n1c(=O)ccc2cc(S(=O)(=O)Nc3ccon3)ccc21 (atropisomer, axis not shown; (P)) [Example 381, (P)—N-3-isoxazolyl-1-(4-methoxy-3′-(trifluoromethyl)-3-biphenylyl)-2-oxo-1,2-dihydro-6-quinolinesulfonamide]
18 | COc1cc(-c2cc(F)cc(Cl)c2)c(F)cc1-n1c(=O)ccc2cc(S(=O)(=O)Nc3ncccn3)ccc21 (atropisomer, axis not shown; (P)) [Example 541, (P)-1-(3′-chloro-2,5′-difluoro-5-methoxy-4-biphenylyl)-2-oxo-N-2-pyrimidinyl-1,2-dihydro-6-quinolinesulfonamide]
207 | COc1cc(-c2cccc(Cl)c2)cc(F)c1-n1c(=O)ccc2cc(S(=O)(=O)Nc3ccon3)ccc21 (atropisomer, axis not shown; (M)) [Example 319, (M)-1-(3′-chloro-3-fluoro-5-methoxy-4-biphenylyl)-N-3-isoxazolyl-2-oxo-1,2-dihydro-6-quinolinesulfonamide]
7 | COc1cc(-c2cc(F)cc(Cl)c2)c(F)cc1-n1c(=O)ccc2cc(S(=O)(=O)Nc3cccnn3)ccc21 (atropisomer, axis not shown; (P)) [Example 542, (P)-1-(3′-chloro-2,5′-difluoro-5-methoxy-4-biphenylyl)-2-oxo-N-3-pyridazinyl-1,2-dihydro-6-quinolinesulfonamide]

Same assay, conditions: in-vitro Nav 1.7 PX data

IC50 [nM] | Compound
66 | COc1cc(OC)cc(-c2ccc(-n3c(=O)ccc4cc(S(=O)(=O)Nc5ccon5)ccc43)c(OC)c2)c1 [Example 811, N-3-isoxazolyl-2-oxo-1-(3,3′,5′-trimethoxy-4-biphenylyl)-1,2-dihydro-6-quinolinesulfonamide]
81 | COc1cc(-c2ccc(C)c(F)c2)c(F)cc1-n1c(=O)ccc2cc(S(=O)(=O)Nc3ncco3)ccc21 [Example 1125, 1-(2,3′-difluoro-5-methoxy-4′-methyl-4-biphenylyl)-N-1,3-oxazol-2-yl-2-oxo-1,2-dihydro-6-quinolinesulfonamide]
38 | COc1nc(C2CC2)c(Cl)cc1-n1c(=O)ccc2cc(S(=O)(=O)Nc3ccon3)ccc21 [640/830, 1-(5-chloro-6-cyclopropyl-2-methoxy-3-pyridinyl)-N-3-isoxazolyl-2-oxo-1,2-dihydro-6-quinolinesulfonamide]
206 | COc1ccc(-c2cc(F)cc(Cl)c2)cc1-n1c(=O)ccc2cc(S(=O)(=O)Nc3cnccn3)ccc21 [Example 876, 1-(3′-chloro-5′-fluoro-4-methoxy-3-biphenylyl)-2-oxo-N-2-pyrazinyl-1,2-dihydro-6-quinolinesulfonamide]
47 | COc1cc(-c2ccc(F)c(F)c2)ccc1-n1c(=O)ccc2cc(S(=O)(=O)Nc3cccnn3)ccc21 [Example 896, 1-(3′,4′-difluoro-3-methoxy-4-biphenylyl)-2-oxo-N-3-pyridazinyl-1,2-dihydro-6-quinolinesulfonamide]
21 | COc1cc(-c2cccc(C(F)(F)F)c2)c(F)cc1-n1c(=O)ccc2cc(S(=O)(=O)Nc3ncc(F)cn3)ccc21 [Example 802, 1-(2-fluoro-5-methoxy-3′-(trifluoromethyl)-4-biphenylyl)-N-(5-fluoro-2-pyrimidinyl)-2-oxo-1,2-dihydro-6-quinolinesulfonamide]
21 | COc1ccc(-c2ccc(F)c(C)c2)cc1-n1c(=O)ccc2cc(S(=O)(=O)Nc3ccon3)ccc21 [Example 878, 1-(4′-fluoro-4-methoxy-3′-methyl-3-biphenylyl)-N-3-isoxazolyl-2-oxo-1,2-dihydro-6-quinolinesulfonamide]
1770 | COc1cc(-c2cccc(F)c2)ncc1-n1c(=O)ccc2cc(S(=O)(=O)Nc3ccon3)ccc21 [Example 601, 1-(6-(3-fluorophenyl)-4-methoxy-3-pyridinyl)-N-3-isoxazolyl-2-oxo-1,2-dihydro-6-quinolinesulfonamide]
106 | COc1cc(-c2ccc(C)c(F)c2)c(F)cc1-n1c(=O)ccc2cc(S(=O)(=O)Nc3ccnc(C)n3)ccc21 [Example 1124, 1-(2,3′-difluoro-5-methoxy-4′-methyl-4-biphenylyl)-N-(2-methyl-4-pyrimidinyl)-2-oxo-1,2-dihydro-6-quinolinesulfonamide]
23 | COc1cc(F)cc(-c2cc(OC)c(-n3c(=O)ccc4cc(S(=O)(=O)Nc5ncccn5)ccc43)cc2C)c1 [Example 957, 1-(3′-fluoro-5,5′-dimethoxy-2-methyl-4-biphenylyl)-2-oxo-N-2-pyrimidinyl-1,2-dihydro-6-quinolinesulfonamide]
57 | COc1cc(-c2cccc(OC)c2C)c(C)cc1-n1c(=O)ccc2cc(S(=O)(=O)Nc3ncccn3)ccc21 [Example 968, 1-(3′,5-dimethoxy-2,2′-dimethyl-4-biphenylyl)-2-oxo-N-2-pyrimidinyl-1,2-dihydro-6-quinolinesulfonamide]
613 | COc1cc(-c2cccc(OC(C)C)c2)ccc1-n1c(=O)ccc2cc(S(=O)(=O)Nc3ncccn3)ccc21 [Example 828, 1-(3-methoxy-3′-(1-methylethoxy)-4-biphenylyl)-2-oxo-N-2-pyrimidinyl-1,2-dihydro-6-quinolinesulfonamide]
32 | COc1cc(-c2cncc(C(F)(F)F)c2)c(F)cc1-n1c(=O)ccc2cc(S(=O)(=O)Nc3ccon3)ccc21 [Example 721, 1-(5-fluoro-2-methoxy-4-(5-(trifluoromethyl)-3-pyridinyl)phenyl)-N-3-isoxazolyl-2-oxo-1,2-dihydro-6-quinolinesulfonamide]
64 | COc1cc(-c2cc(OC)c(-n3c(=O)ccc4cc(S(=O)(=O)Nc5ncccn5)ccc43)cc2C)ccc1C [Example 966, 1-(3′,5-dimethoxy-2,4′-dimethyl-4-biphenylyl)-2-oxo-N-2-pyrimidinyl-1,2-dihydro-6-quinolinesulfonamide]
60 | COc1cc(F)cc(-c2ccc(OC)c(-n3c(=O)ccc4cc(S(=O)(=O)Nc5ccon5)ccc43)c2)c1 [Example 853, 1-(3′-fluoro-4,5′-dimethoxy-3-biphenylyl)-N-3-isoxazolyl-2-oxo-1,2-dihydro-6-quinolinesulfonamide]
34 | COc1cc(-c2ccc(C)c(F)c2)c(F)cc1-n1c(=O)ccc2cc(S(=O)(=O)Nc3ncc(F)cn3)ccc21 [Example 1127, 1-(2,3′-difluoro-5-methoxy-4′-methyl-4-biphenylyl)-N-(5-fluoro-2-pyrimidinyl)-2-oxo-1,2-dihydro-6-quinolinesulfonamide]
37 | COc1cc(-c2cc(F)cc(Cl)c2)c(F)cc1-n1c(=O)ccc2cc(S(=O)(=O)Nc3ccsn3)ccc21 [Example 921, 1-(3′-chloro-2,5′-difluoro-5-methoxy-4-biphenylyl)-N-3-isothiazolyl-2-oxo-1,2-dihydro-6-quinolinesulfonamide]
53 | COc1ccc(-c2cc(F)cc(F)c2)cc1-n1c(=O)ccc2cc(S(=O)(=O)Nc3ccon3)ccc21 [Example 865, 1-(3′,5′-difluoro-4-methoxy-3-biphenylyl)-N-3-isoxazolyl-2-oxo-1,2-dihydro-6-quinolinesulfonamide]
40 | COc1cc(-c2cccc(C)c2)ccc1-n1c(=O)ccc2cc(S(=O)(=O)Nc3ncc(F)cn3)ccc21 [Example 1119, N-(5-fluoro-2-pyrimidinyl)-1-(3-methoxy-3′-methyl-4-biphenylyl)-2-oxo-1,2-dihydro-6-quinolinesulfonamide]
5 | COc1cc(-c2cccc(Cl)c2F)c(F)cc1-n1c(=O)ccc2cc(S(=O)(=O)Nc3ccon3)ccc21 [Example 703, 1-(3′-chloro-2,2′-difluoro-5-methoxy-4-biphenylyl)-N-3-isoxazolyl-2-oxo-1,2-dihydro-6-quinolinesulfonamide]
10 | COc1cc(-c2ccc(Cl)cc2)c(F)cc1-n1c(=O)ccc2cc(S(=O)(=O)Nc3ncc(F)cn3)ccc21 [Example 750, 1-(4′-chloro-2-fluoro-5-methoxy-4-biphenylyl)-N-(5-fluoro-2-pyrimidinyl)-2-oxo-1,2-dihydro-6-quinolinesulfonamide]

Same assay, conditions: in-vitro Nav 1.7 PX data (PatchXpress)

IC50 [nM] | Compound
7780 | N#CCOc1cc(Br)c(F)cc1-n1c(=O)ccc2cc(S(=O)(=O)Nc3ccon3)ccc21 [Example 623, 1-(4-bromo-2-(cyanomethoxy)-5-fluorophenyl)-N-(isoxazol-3-yl)-2-oxo-1,2-dihydroquinoline-6-sulfonamide]
912 | O=c1ccc2cc(S(=O)(=O)Nc3ncns3)ccc2n1-c1ccc(-c2cc(F)cc(F)c2)cc1C1CC1 [Example 1049, 1-(3-cyclopropyl-3′,5′-difluoro-4-biphenylyl)-2-oxo-N-1,2,4-thiadiazol-5-yl-1,2-dihydro-6-quinolinesulfonamide]
64 | COc1ccc(F)c(-c2ccc(-n3c(=O)ccc4cc(S(=O)(=O)Nc5ccon5)ccc43)c(OC)c2)c1 [Example 1033, 1-(2′-fluoro-3,5′-dimethoxy-4-biphenylyl)-N-3-isoxazolyl-2-oxo-1,2-dihydro-6-quinolinesulfonamide]

Same assay, conditions: in-vitro Nav 1.7 PX data, Table 4

IC50 [nM] | Compound
89 | COc1cc(-c2cnc(OC)c(Cl)c2)c(F)cc1-n1c(=O)ccc2cc(S(=O)(=O)Nc3ncco3)ccc21 (atropisomer, axis not shown; (P)) [Example 1158, (P)-1-(4-(5-chloro-6-methoxy-3-pyridinyl)-5-fluoro-2-methoxyphenyl)-N-1,3-oxazol-2-yl-2-oxo-1,2-dihydro-6-quinolinesulfonamide]

Same assay, conditions: in-vitro PatchXpress (PX)

IC50 [nM] | Compound
7 | COc1cc(-c2ccc(C)c(Cl)c2)c(F)cc1-n1c(=O)ccc2cc(S(=O)(=O)Nc3ccon3)ccc21 (atropisomer, axis not shown; (P)) [Example 528, (P)-1-(3′-chloro-2-fluoro-5-methoxy-4′-methyl-4-biphenylyl)-N-3-isoxazolyl-2-oxo-1,2-dihydro-6-quinolinesulfonamide]
